In ChEMBL document CHEMBL1201862, “PubChem BioAssay data set” (2004):
Active and inactive are the calls of the source.

Columns and labels:
[1] = molecular target: T1, Beta-lactamase (Pseudomonas aeruginosa, UniProt Q79MP6); test: […] counterscreen for selective VIM-2 inhibitors: dose response biochemical high throughput screening assay to identify inhibitors of IMP-1 metallo-beta-lactamase.
[2] = molecular target: T1, Beta-lactamase; test: IMP-1 metallo-beta-lactamase inhibitors, dose response, selectivity assay for VIM-2 inhibitor project, biochemical, epi-absorbance (AID 1920)
[3] = molecular target: T2, Heat shock factor protein 1 (Mus musculus, UniProt P38532); test: HSF1 potentiators in luciferase reporter cells, confirmation, cell-based, NIH3T3, luminescence, dose retest (AID 435004); format: functional;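 further: stress induced by proteasome inhibitor MG132 added 30 min after compound; luciferase reporter driven by HSF1 response element in NIH3T3 cells; actives raise luminescence as potentiators of the MG132 stress response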
T2 sequence (P38532 whole entry): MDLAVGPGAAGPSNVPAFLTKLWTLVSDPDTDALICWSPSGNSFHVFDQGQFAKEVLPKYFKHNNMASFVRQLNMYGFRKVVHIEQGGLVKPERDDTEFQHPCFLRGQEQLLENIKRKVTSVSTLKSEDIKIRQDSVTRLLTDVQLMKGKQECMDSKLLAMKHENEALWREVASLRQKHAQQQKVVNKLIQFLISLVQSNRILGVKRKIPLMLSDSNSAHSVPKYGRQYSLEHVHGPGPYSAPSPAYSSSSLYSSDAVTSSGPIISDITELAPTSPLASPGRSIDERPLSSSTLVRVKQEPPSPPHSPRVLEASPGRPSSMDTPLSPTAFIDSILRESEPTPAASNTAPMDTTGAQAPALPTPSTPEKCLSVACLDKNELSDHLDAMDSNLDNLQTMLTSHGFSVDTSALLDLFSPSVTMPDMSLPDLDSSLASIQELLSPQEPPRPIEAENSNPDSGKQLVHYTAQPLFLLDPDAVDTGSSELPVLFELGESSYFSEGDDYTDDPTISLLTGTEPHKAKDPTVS

[4] = molecular target: T3, Leucine aminopeptidase (Plasmodium falciparum 3D7, UniProt Q8IL11); test: P. falciparum M17LAP inhibitors, primary screen, biochemical, fluorogenic H-Leu-NHMec substrate, 1536-well (AID 1619); format: functional
T3 sequence (Q8IL11 whole entry): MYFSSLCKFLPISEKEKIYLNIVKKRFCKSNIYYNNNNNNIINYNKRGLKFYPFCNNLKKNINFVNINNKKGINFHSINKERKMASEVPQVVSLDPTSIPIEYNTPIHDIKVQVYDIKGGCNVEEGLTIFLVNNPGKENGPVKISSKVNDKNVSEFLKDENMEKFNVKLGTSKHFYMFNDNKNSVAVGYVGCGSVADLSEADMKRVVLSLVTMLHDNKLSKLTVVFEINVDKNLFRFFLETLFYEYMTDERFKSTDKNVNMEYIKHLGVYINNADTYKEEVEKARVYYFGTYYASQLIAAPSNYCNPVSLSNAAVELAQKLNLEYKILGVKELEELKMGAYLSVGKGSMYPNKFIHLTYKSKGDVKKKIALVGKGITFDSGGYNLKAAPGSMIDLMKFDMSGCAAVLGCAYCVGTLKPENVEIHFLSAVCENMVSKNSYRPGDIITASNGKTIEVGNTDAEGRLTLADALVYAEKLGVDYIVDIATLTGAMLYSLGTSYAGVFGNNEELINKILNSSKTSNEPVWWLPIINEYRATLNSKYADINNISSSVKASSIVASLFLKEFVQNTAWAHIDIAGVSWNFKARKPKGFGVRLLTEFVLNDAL

[5] = molecular target: Beta-lactamase (Salmonella choleraesuis (strain SC-B67), UniProt Q5J463); test: Epi-absorbance-based counterscreen for selective VIM-2 inhibitors: dose response biochemical high throughput screening assay to identify inhibitors of TEM-1 serine-beta-lactamase.
[6] = molecular target: Protein Wnt-3a (Mus musculus, UniProt P27467); test: Wnt3a-driven reporter signaling inhibition, dose response, selectivity assay for Gli-SUFU antagonist project, Wnt-LIGHT cells, luminescence (AID 651570); format: functional; settings: read-out: IC50_Mean;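 further: Wnt-LIGHT reporter cells stimulated with conditioned medium from Wnt3a-producing cells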
[7] = control 3'UTR Renilla luciferase suppression, dose response, counter-screen for Shn3 inhibitor project, cell-based, Clone20-Shn3RL, cherry-picked (AID 624133); format: functional
[8] = HepG2 cell cytotoxicity, dose response, cytotoxicity control for Shn3 inhibitor project, CellTiter-Glo, cherry-picked (AID 624134); format: functional, cell-based
[9] = reduction of Shn3 3'UTR firefly luciferase signal, dose response, Schnurri-3 inhibitor project, cell-based, Clone20 osteoblasts, cherry-pick, set 2 (AID 720490); format: functional;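 further: actives lower the luminescence signal as inhibitors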
[10] = Shn3 3'UTR reporter inhibitors, dose response, cell-based, Clone20 osteoblasts, firefly luciferase, cherry-picked (AID 624132); format: functional;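 further: firefly luciferase luminescence from reporter carrying the Shn3 3'UTR in osteoblasts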
[11] = molecular target: T4, Low molecular weight phosphotyrosine protein phosphatase (Homo sapiens, UniProt P24666); format: functional; settings: read-out: IC50_Mean
[12] = molecular target: T4, Low molecular weight phosphotyrosine protein phosphatase; format: functional; settings: read-out: IC50_Mean; remark: listed apart in the source
[13] = molecular target: Mu-type opioid receptor (Homo sapiens, UniProt P35372); format: functional, cell-based;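 further: U2OS cells with beta-arrestin recruitment to OPRM1 by beta-gal complementation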
[14] = molecular target: 5-hydroxytryptamine receptor 2A (Mus musculus, UniProt P35363); format: functional, cell-based;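 further: CHO-K1 cells with tagged receptor and beta-arrestin; agonist potency measured as compound-induced activation of the receptor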
[15] = molecular target: fMet-Leu-Phe receptor (Homo sapiens, UniProt P21462); test: FPR ligands, dose response (AID 519); format: functional
[16] = molecular target: T5, Microphthalmia-associated transcription factor (Homo sapiens, UniProt O75030); test: TRPM1 promoter luciferase signal decrease, dose response, MITF inhibitor project, cell-based, SK-MEL-5, cherry-picked, set 3 (AID 493073); format: functional
T5 sequence (O75030 whole entry): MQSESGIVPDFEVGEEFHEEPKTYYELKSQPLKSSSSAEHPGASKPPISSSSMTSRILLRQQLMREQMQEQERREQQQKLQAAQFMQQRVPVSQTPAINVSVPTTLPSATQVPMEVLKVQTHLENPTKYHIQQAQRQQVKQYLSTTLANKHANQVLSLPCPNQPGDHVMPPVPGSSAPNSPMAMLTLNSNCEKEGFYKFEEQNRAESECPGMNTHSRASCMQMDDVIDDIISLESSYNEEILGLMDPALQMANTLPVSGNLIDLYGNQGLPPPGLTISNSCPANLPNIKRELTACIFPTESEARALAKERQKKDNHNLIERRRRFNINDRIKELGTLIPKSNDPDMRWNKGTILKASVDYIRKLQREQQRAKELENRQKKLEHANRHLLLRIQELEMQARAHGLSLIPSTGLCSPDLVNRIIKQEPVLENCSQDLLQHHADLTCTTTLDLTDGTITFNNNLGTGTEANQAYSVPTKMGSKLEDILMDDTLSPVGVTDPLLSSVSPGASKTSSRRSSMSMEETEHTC

[17] = HepG2 cell cytotoxicity, dose response, cytotoxicity control, cherry-picks, set 5 (AID 1053118); format: functional, cell-based
[18] = tested on: A-375; test: MITF: Counter assay: A375 proliferation Measured in Cell-Based System Using Plate Reader - 2084-03_Inhibitor_Dose_DryPowder_Activity. [Related pubchem assays (depositor defined):AID488944]; format: functional; settings: Homo sapiens
[19] = inhibitors of fibronectin matrix deposition, dose response, AH1F cells, Alexa488-FN fluorescence, cherry-picks (AID 1035475); format: functional, cell-based
[20] = growth suppression of beta-catenin-knockout colon cells, dose response, cell-based, HCT116, human colon tumor (AID 1045); format: functional;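 further: HCT116 colon tumor cells with beta catenin knocked out; cells exposed to compound for 60 hours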
[21] = tested on: A-375; test: A375 melanoma cell viability reduction, dose response, counter-screen for MITF modulator project, cherry-pick samples, set 2 (AID 540335); format: functional, cell-based; settings: Homo sapiens
[22] = growth suppression of PTEN-null colon cells, dose response, cell-based, HCT116 PTEN knockout (AID 1047); format: functional;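 further: HCT116 colon tumor cells with PTEN knocked out; cells exposed to compound for 60 hours before readout; potency for loss of cell viability measured by luminescence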
[23] = ADAM10 protease inhibitors, dose response, selectivity assay for ADAM17 exosite inhibitor project, biochemical, FRET peptide substrate, recombinant human ADAM10 (AID 743259);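 further: ADAM10 enzyme cleaving a FRET peptide substrate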
[24] = molecular target: Disintegrin and metalloproteinase domain-containing protein 17 (Homo sapiens, UniProt P78536); test: exosite inhibitors of ADAM17, dose response, biochemical (AID 743260)
Sequence of Disintegrin and metalloproteinase domain-containing protein 17 (P78536 whole entry, the tested form may be a part): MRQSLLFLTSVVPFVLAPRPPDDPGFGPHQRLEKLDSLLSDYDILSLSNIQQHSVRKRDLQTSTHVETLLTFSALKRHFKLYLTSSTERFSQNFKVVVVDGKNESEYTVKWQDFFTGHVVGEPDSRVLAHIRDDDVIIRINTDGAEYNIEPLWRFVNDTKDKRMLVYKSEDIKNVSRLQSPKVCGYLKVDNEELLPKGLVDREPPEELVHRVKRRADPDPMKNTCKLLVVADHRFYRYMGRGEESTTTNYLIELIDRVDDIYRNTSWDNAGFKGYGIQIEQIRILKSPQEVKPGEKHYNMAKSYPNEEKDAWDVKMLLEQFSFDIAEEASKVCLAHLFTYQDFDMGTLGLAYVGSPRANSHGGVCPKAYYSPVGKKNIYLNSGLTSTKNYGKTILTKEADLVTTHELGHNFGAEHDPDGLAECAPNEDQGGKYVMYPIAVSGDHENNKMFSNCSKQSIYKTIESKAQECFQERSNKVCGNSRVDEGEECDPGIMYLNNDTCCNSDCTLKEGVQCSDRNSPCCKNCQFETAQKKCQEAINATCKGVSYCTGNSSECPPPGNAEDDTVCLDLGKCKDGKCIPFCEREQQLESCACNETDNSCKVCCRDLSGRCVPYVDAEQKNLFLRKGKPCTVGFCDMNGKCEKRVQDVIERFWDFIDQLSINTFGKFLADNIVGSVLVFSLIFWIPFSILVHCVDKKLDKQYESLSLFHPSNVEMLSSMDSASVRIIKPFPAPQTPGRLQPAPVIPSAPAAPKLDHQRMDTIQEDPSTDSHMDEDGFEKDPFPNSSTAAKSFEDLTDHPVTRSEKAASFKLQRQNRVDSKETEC

T1 sequence (Q79MP6 whole entry): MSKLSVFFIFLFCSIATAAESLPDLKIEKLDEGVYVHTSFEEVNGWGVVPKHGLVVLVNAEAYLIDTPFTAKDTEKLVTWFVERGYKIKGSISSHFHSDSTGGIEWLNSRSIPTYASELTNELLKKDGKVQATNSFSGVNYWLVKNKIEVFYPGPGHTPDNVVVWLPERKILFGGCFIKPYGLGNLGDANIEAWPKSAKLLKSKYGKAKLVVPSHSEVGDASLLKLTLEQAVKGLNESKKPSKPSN
T4 sequence (P24666 whole entry): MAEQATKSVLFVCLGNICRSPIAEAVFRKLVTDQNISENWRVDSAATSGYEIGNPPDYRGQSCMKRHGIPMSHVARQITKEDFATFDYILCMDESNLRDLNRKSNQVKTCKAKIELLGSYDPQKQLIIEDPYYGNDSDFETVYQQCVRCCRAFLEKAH
Sequence of Protein Wnt-3a (P27467 whole entry): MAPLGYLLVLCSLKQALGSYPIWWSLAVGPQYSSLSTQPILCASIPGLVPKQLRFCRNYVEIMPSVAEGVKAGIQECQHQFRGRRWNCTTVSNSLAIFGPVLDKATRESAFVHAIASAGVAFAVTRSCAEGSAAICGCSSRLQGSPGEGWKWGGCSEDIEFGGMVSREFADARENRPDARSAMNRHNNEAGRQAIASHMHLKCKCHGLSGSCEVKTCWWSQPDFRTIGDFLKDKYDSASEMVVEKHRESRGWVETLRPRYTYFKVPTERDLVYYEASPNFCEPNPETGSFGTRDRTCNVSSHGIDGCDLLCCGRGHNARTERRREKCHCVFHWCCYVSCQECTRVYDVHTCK
Sequence of 5-hydroxytryptamine receptor 2A (P35363 whole entry): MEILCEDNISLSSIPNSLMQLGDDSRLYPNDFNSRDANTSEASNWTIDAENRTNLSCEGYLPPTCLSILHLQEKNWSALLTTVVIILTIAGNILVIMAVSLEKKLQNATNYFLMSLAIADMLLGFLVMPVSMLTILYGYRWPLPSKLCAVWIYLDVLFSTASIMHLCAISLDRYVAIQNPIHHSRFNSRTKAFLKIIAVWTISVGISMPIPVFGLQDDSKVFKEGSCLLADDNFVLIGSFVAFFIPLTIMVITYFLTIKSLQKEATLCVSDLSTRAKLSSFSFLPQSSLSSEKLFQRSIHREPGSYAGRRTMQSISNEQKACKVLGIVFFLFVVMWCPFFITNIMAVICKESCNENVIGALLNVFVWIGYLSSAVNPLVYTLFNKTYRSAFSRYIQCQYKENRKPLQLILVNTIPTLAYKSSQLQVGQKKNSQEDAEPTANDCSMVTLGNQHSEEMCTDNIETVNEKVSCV
Sequence of fMet-Leu-Phe receptor (P21462 whole entry): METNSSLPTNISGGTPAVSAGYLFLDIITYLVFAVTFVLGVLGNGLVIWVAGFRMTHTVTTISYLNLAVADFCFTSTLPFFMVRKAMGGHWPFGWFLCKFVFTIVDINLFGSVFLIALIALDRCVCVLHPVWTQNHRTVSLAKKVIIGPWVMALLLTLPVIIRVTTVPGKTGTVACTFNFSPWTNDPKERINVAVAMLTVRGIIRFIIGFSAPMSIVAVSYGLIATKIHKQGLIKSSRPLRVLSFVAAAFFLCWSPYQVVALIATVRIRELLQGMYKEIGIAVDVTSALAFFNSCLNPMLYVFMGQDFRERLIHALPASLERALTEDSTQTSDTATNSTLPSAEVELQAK
Sequence of Beta-lactamase (Salmonella choleraesuis (strain SC-B67), UniProt Q5J463) (Q5J463 whole entry): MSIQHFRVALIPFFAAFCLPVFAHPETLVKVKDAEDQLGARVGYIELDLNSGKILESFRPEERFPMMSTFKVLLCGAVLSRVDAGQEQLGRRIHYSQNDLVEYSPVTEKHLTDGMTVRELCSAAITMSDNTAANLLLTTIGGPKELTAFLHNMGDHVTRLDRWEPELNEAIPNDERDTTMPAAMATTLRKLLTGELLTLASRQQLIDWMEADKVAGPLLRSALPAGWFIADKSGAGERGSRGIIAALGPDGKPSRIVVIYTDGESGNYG
Sequence of Mu-type opioid receptor (P35372 whole entry): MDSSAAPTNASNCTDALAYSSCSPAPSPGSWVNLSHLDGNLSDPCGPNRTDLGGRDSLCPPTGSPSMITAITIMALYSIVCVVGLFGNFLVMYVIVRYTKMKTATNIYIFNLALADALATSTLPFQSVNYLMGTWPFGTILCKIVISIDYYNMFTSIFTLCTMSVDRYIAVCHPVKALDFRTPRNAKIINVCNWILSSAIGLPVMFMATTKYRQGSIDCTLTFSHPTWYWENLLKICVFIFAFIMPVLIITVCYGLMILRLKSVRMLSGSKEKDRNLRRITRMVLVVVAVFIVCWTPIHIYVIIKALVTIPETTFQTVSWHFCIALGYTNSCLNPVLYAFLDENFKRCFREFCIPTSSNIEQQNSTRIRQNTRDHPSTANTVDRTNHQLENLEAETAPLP

CC(C)(C)c1ccc(COc2ccsc2C(=O)O)cc1
IC50 [1]: > 59.6 µM (inactive) | IC50 [2]: > 59.6 µM (inactive) | EC50 [3]: 137 µM (active) | IC50 [4]: 11.5 µM (active) | IC50 [5]: > 59.6 µM (inactive)

CC(C)Cn1c(N)c(C(=O)COC(=O)C2Cc3ccccc3CN2S(C)(=O)=O)c(=O)n(C)c1=O (configuration not stated)
IC50 [6]: 6.31 µM (active) | AC50 [7]: 4.76 µM (active) | AC50 [8]: > 70 µM (inactive) | AC50 [9]: 0.897 µM (active) | AC50 [10]: 0.72 µM (active)

COCCNc1nc(NCc2cccc(OC)c2OC)c2sccc2n1
IC50 [11]: 12.8 µM (active) | IC50 [12]: 8.2 µM (active)

O=C(C[n+]1cc(-c2ccccc2)n2c1CCC2)Nc1nc(-c2ccc(F)cc2)cs1
EC50 [13]: 92.5 µM (inactive) | EC50 [14]: 76.1 µM (inactive)

COc1ccc(OC)c(NC(=O)C2C3CCC(C3=C(C)C)C2C(=O)O)c1 (configuration not stated)
Ki [15]: > 66.7 µM (inactive)

Cn1cc([N+](=O)[O-])c(C(=O)Nc2cc(Oc3ccccc3)cc([N+](=O)[O-])c2)n1
AC50 [7]: 2.82 µM (active) | AC50 [16]: 12.4 µM (active) | AC50 [8]: 19.8 µM (active) | AC50 [17]: 21.9 µM (active) | AC50 [18]: > 35 µM (active) | AC50 [19]: 12.3 µM (active) | EC50 [20]: 0.309 µM (active) | AC50 [10]: 5.41 µM (active) | AC50 [21]: > 35 µM (active) | EC50 [22]: 0.389 µM (active)

COC(=O)C1=C(c2cccc(OCc3ccccc3)c2)C[C@@H]2CC[C@H]1N2C(=O)NCCOc1ccc(OC)cc1
IC50 [23]: 12.1 µM (inactive) | IC50 [24]: > 69.5 µM (inactive)
